Source: PubChem BioAssay AID2060498 (Molecular Pharmacology Branch, DTP, NCI, 2025)
pIC50: −log10 of the molar value.

Tested on: 171881-019-R-J1-PDC tumor spheroids, viability
Assay: Anticancer human tumor 171881-019-R-J1-PDC patient-derived invasive breast carcinoma cell line growth inhibition [GQUAD]
Conditions: spheroids with HUVEC and MSC; for pIC50: curve of first compound; for viability, T/C: stronger effect = lower value
Summary of the method: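 Viability of tumor cells grown as complex spheroids with endothelial and stromal cells, exposed to drug combinations. Top concentration at or near clinical Cmax (else 10 microM), diluted in half-log increments.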

[1] = second compound 0.0316 µM, first compound 0.0316 µM
[2] = second compound 0.0316 µM, first compound 0.1 µM
[3] = second compound 0.0316 µM, first compound 0.316 µM
[4] = second compound 0.0316 µM, first compound 1 µM
[5] = second compound 0.0316 µM, first compound 3.16 µM
[6] = second compound 0.0316 µM, first compound 10 µM
[7] = second compound 0.1 µM, first compound 0.0316 µM
[8] = second compound 0.1 µM, first compound 0.1 µM
[9] = second compound 0.1 µM, first compound 0.316 µM
[10] = second compound 0.1 µM, first compound 1 µM
[11] = second compound 0.1 µM, first compound 3.16 µM
[12] = second compound 0.1 µM, first compound 10 µM
[13] = second compound 0.316 µM, first compound 0.0316 µM
[14] = second compound 0.316 µM, first compound 0.1 µM
[15] = second compound 0.316 µM, first compound 0.316 µM
[16] = second compound 0.316 µM, first compound 1 µM
[17] = second compound 0.316 µM, first compound 3.16 µM
[18] = second compound 0.316 µM, first compound 10 µM
[19] = second compound 1 µM, first compound 0.0316 µM
[20] = second compound 1 µM, first compound 0.1 µM
[21] = second compound 1 µM, first compound 0.316 µM
[22] = second compound 1 µM, first compound 1 µM
[23] = second compound 1 µM, first compound 3.16 µM
[24] = second compound 1 µM, first compound 10 µM
[25] = second compound 3.16 µM, first compound 0.0316 µM
[26] = second compound 3.16 µM, first compound 0.1 µM
[27] = second compound 3.16 µM, first compound 0.316 µM
[28] = second compound 3.16 µM, first compound 1 µM
[29] = second compound 3.16 µM, first compound 3.16 µM
[30] = second compound 3.16 µM, first compound 10 µM
[31] = second compound 10 µM, first compound 0.0316 µM
[32] = second compound 10 µM, first compound 0.1 µM
[33] = second compound 10 µM, first compound 0.316 µM
[34] = second compound 10 µM, first compound 1 µM
[35] = second compound 10 µM, first compound 3.16 µM
[36] = second compound 10 µM, first compound 10 µM
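Wherever viability, T/C is given: 100% = DMSO vehicle control viability.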

## CC1COCCN1c1cc(C2(S(C)(=N)=O)CC2)nc(-c2ccnc3[nH]ccc23)n1 (stereo unspecified) + CN(C)c1ccc(Nc2c3ccc(NC(=O)CCN4CCCC4)cc3nc3cc(NC(=O)CCN4CCCC4)ccc23)cc1
Second compound 0.0316 µM
  pIC50: 5.86
Second compound 0.1 µM
  pIC50: 5.92
Second compound 0.316 µM
  pIC50: 6.18
Second compound 1 µM
  pIC50: > 7.50
Second compound 3.16 µM
  pIC50: > 7.50
Second compound 10 µM
  pIC50: > 7.50
[1]
  viability, T/C: 97.3%
[2]
  viability, T/C: 109%
[3]
  viability, T/C: 99.8%
[4]
  viability, T/C: 62.6%
[5]
  viability, T/C: 15.8%
[6]
  viability, T/C: 6.43%
[7]
  viability, T/C: 98.9%
[8]
  viability, T/C: 99.1%
[9]
  viability, T/C: 81%
[10]
  viability, T/C: 59.1%
[11]
  viability, T/C: 16.8%
[12]
  viability, T/C: 6.7%
[13]
  viability, T/C: 77.7%
[14]
  viability, T/C: 88%
[15]
  viability, T/C: 63%
[16]
  viability, T/C: 41.6%
[17]
  viability, T/C: 16.7%
[18]
  viability, T/C: 4.97%
[19]
  viability, T/C: 26%
[20]
  viability, T/C: 13.1%
[21]
  viability, T/C: 20.5%
[22]
  viability, T/C: 11.9%
[23]
  viability, T/C: 7.12%
[24]
  viability, T/C: 2.2%
[25]
  viability, T/C: 1.87%
[26]
  viability, T/C: 1.5%
[27]
  viability, T/C: 1.71%
[28]
  viability, T/C: 0.99%
[29]
  viability, T/C: 0.76%
[30]
  viability, T/C: 0.35%
[31]
  viability, T/C: 0.19%
[32]
  viability, T/C: 0.55%
[33]
  viability, T/C: 0.48%
[34]
  viability, T/C: 0.52%
[35]
  viability, T/C: 0.54%
[36]
  viability, T/C: 0.25%

## COc1ccc([C@@H](O)c2cc(-c3ncnc4cc(N5CCOCC5)ccc34)c(F)cc2Cl)nn1 + CN(C)c1ccc(Nc2c3ccc(NC(=O)CCN4CCCC4)cc3nc3cc(NC(=O)CCN4CCCC4)ccc23)cc1
Second compound 0.0316 µM
  pIC50: 6.26
Second compound 0.1 µM
  pIC50: 6.24
Second compound 0.316 µM
  pIC50: 6.47
Second compound 1 µM
  pIC50: > 7.50
Second compound 3.16 µM
  pIC50: > 7.50
Second compound 10 µM
  pIC50: > 7.50
[1]
  viability, T/C: 97.2%
[2]
  viability, T/C: 85.8%
[3]
  viability, T/C: 62.5%
[4]
  viability, T/C: 37.6%
[5]
  viability, T/C: 7.36%
[6]
  viability, T/C: 1.57%
[7]
  viability, T/C: 94.5%
[8]
  viability, T/C: 87%
[9]
  viability, T/C: 64.2%
[10]
  viability, T/C: 37.5%
[11]
  viability, T/C: 7.17%
[12]
  viability, T/C: 1.52%
[13]
  viability, T/C: 79.3%
[14]
  viability, T/C: 72.5%
[15]
  viability, T/C: 52.2%
[16]
  viability, T/C: 18.2%
[17]
  viability, T/C: 4.99%
[18]
  viability, T/C: 0.9%
[19]
  viability, T/C: 27.1%
[20]
  viability, T/C: 17.4%
[21]
  viability, T/C: 18.6%
[22]
  viability, T/C: 4.62%
[23]
  viability, T/C: 1.37%
[24]
  viability, T/C: 0.46%
[25]
  viability, T/C: 1.64%
[26]
  viability, T/C: 2.1%
[27]
  viability, T/C: 1.49%
[28]
  viability, T/C: 0.45%
[29]
  viability, T/C: 0.38%
[30]
  viability, T/C: 0.23%
[31]
  viability, T/C: 0.4%
[32]
  viability, T/C: 0.57%
[33]
  viability, T/C: 0.32%
[34]
  viability, T/C: 0.19%
[35]
  viability, T/C: 0.14%
[36]
  viability, T/C: 0.38%

## O=C(c1cc(Cc2n[nH]c(=O)c3ccccc23)ccc1F)N1CCN(C(=O)C2CC2)CC1 + CN(C)c1ccc(Nc2c3ccc(NC(=O)CCN4CCCC4)cc3nc3cc(NC(=O)CCN4CCCC4)ccc23)cc1
Second compound 0.0316 µM
  pIC50: < 5.00
Second compound 0.1 µM
  pIC50: < 5.00
Second compound 0.316 µM
  pIC50: < 5.00
Second compound 1 µM
  pIC50: > 7.50
Second compound 3.16 µM
  pIC50: > 7.50
Second compound 10 µM
  pIC50: > 7.50
[1]
  viability, T/C: 98.5%
[2]
  viability, T/C: 98.5%
[3]
  viability, T/C: 107%
[4]
  viability, T/C: 96.3%
[5]
  viability, T/C: 90.7%
[6]
  viability, T/C: 94.2%
[7]
  viability, T/C: 107%
[8]
  viability, T/C: 95.4%
[9]
  viability, T/C: 91.1%
[10]
  viability, T/C: 109%
[11]
  viability, T/C: 91.7%
[12]
  viability, T/C: 86.3%
[13]
  viability, T/C: 86.5%
[14]
  viability, T/C: 94.1%
[15]
  viability, T/C: 80.3%
[16]
  viability, T/C: 78.5%
[17]
  viability, T/C: 82%
[18]
  viability, T/C: 60.8%
[19]
  viability, T/C: 31.7%
[20]
  viability, T/C: 19.5%
[21]
  viability, T/C: 25.3%
[22]
  viability, T/C: 18.4%
[23]
  viability, T/C: 20.2%
[24]
  viability, T/C: 17.3%
[25]
  viability, T/C: 1.55%
[26]
  viability, T/C: 1.44%
[27]
  viability, T/C: 1.96%
[28]
  viability, T/C: 1.41%
[29]
  viability, T/C: 1.97%
[30]
  viability, T/C: 1.2%
[31]
  viability, T/C: 0.28%
[32]
  viability, T/C: 0.36%
[33]
  viability, T/C: 0.35%
[34]
  viability, T/C: 0.57%
[35]
  viability, T/C: 0.69%
[36]
  viability, T/C: 0.32%
